Patent US12479816B2, “20-HETE formation inhibitors” (UNIVERSITY OF PITTSBURGH—OF THE COMMONWEALTH SYSTEM OF …, priority 2019, dated 2025)
pIC50: −log10 of the molar value. Where two headings read alike, the source gives them in different places.

Tests used:
[1] = system: 20-HETE formation (CYP4) in RKM; experiment: Inhibition of 20-HETE formation at 250 or 500 nM in RKM microsomal incubations; format: biochemical, rat; settings: 500 nM compound; RKM 300 μg/ml
Experimental: To screen the inhibitory effects against 20-HETE formation, compounds were screened in HLM, RLM, RKM and rCYP4F2 microsomal incubations. Compounds dissolved in either 100% methanol or 100% DMSO to yield 10 mM stock solution. Microsomal incubations containing HLM, RLM, RKM (300 μg/ml) or rCYP4F2 (25 pmol/mL), AA (100 μM), NADPH (1 mM) treated with test compounds at various concentrations (500 nM or 250 nM) in a 1 ml total volume in incubation buffer (0.12 M potassium phosphate buffer containing 5 mM magnesium chloride). Reaction was started by adding NADPH to the incubates and was carried out at 37° C. in a shaking water bath for 20 min. Reaction was stopped by placing tubes on ice, followed by adding 125 μl 20-HETE-d6 as internal standard to each sample. Microsomal incubations were extracted with 3 ml ethyl ether twice, dried down under nitrogen gas and reconstituted in 125 μl 80:20 methanol:deionized H2O for analysis. 20-HETE formation was quantified using a validated UPLC-MS/MS assay and normalized by vehicle group. Each compound had three replications (n=3). Vehicle group was used as control to calculate percentage of 20-HETE formation rate. HET0016 (250 nM) was used as positive control. Incubates without NADPH group served as the negative control. An Acquity ultra performance LC autosampler (Waters, Milford, MA) was used to isolate 20-HETE on an UPLC BEH C18, 1.7 μm (2.1×100 mm) reversed-phase column (Waters, Milford, MA) protected by a guard column (2.1×5 mm; Waters, Milford, MA) of the same packing material. Column temperature was maintained at 55° C. Mobile phases consisted of 0.005% acetic acid, 5% acetonitrile in deionized water (A) and 0.005% acetic acid in acetonitrile (B). The flow rate for mobile phases is 0.5 ml/min. The initial mixture of mobile phase was 65:35 of A and B. Mobile phase B increased at 0.4 minutes after injection from 35% to 70% in a linear gradient over 4 minutes, and again increased to 95% over 0.5 minutes where it remained for 0.3 minutes. This was followed by a linear return to initial conditions over 0.1 minutes with a 1.5 minute pre-equilibration period prior to the next sample run. Total run time was 6.4 minutes for each injection. Injection volumes were 7.5 μl. Mass spectrometric analysis was carried out using a TSQ Quantum Ultra (Thermo Fisher Scientific, San Jose, CA) triple quadrupole mass spectrometer using heated electrospray ionization (HESI). Mass spectrometer was operated in negative selective reaction monitoring (SRM) mode with unit resolutions at both Q1 and Q3 set at 0.70 Da full width at half maximum. Scan time was set at 0.01 s and collision gas pressure was 1.3 mTorr. Quantitation of 20-HETE by SRM was performed by monitoring the m/z. Analytical data was acquired and analyzed using Xcaliber 3.0 data system (ThermoFinnigan, San Jose, CA).

[2] = Turbidometric solubility determination; format: physicochemical; settings: PBS with 1% DMSO, aqueous buffer, kinetic from dmso stock, room temperature
In short: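 Kinetic turbidimetric solubility: DMSO stocks diluted 1:100 into PBS in triplicate to give 0–600 μM in 1% DMSO. Shaken 2 h at room temperature, then OD620 read. Solubility limit taken as the concentration giving a statistically significant absorbance rise above background.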

[3] = HLM stability determination; format: in vitro ADME, human; settings: HLM 500 μg/ml, 1 μM compound, NADPH, relative to 0 min
Experimental: HLM stability determinations shown in Table 3 were obtained as follows. Microsomal incubates contained HLM (500 μg/ml), test compounds (1 μM) and NADPH (1.3 mM) in a 1 ml total volume of microsomal incubation buffer (0.12 M potassium phosphate buffer containing 5 mM magnesium chloride). Reaction was started by adding NADPH to the incubates and was carried out at 37° C. in a shaking water bath for 60 min. At 0, 15, 30, 45, 60 min, a 50 μl aliquot of incubates was taken out and reaction was stopped by adding aliquot into 200 μl ice-cold acetonitrile. After centrifugation at 14000×g for 5 min, 200 μl supernatant was taken out for UPLC-MS/MS analysis as described above. Values at 0 min were used as corresponding control for test compounds. Varapamil, metoprolol, and warfarin, categorized as fast, moderate and slow metabolism, were used as positive control. Incubates without NADPH group served as negative control.

[4] = system: 20-HETE formation (CYP4) in HLM; experiment: IC50 determination, 20-HETE formation in HLM; format: biochemical, human; settings: HLM 300 μg/ml, AA 100 μM, 12 concentrations
Experimental: Microsomal incubations contained HLM, RLM (300 μg/ml), AA (100 μM), NADPH (1 mM) and test compounds at 12 concentrations (0.1 nM-50 μM) in a 1 ml total volume in microsomal incubation buffer (0.12 M potassium phosphate buffer containing 5 mM magnesium chloride). Reaction was started by adding NADPH to the incubates and was carried out at 37° C. in a shaking water bath for 20 min. Reaction was stopped by placing tubes on ice, followed by adding 12.5 μl 20-HETE-d6 as internal standard to each sample. Microsomal incubations were extracted with 3 ml ethyl ether twice, dried down under nitrogen gas and reconstituted in 125 μl 80:20 methanol:deionized H2O for analysis. 20-HETE formation was quantified using the validated UPLC-MS/MS assay described above and normalized by vehicle group. HET0016 (250 nM) was used as positive control. Incubates without NADPH group served as the negative control. IC50 was determined by fitting the dose-response curve using Graphpad Prism nonlinear regression.

[5] = system: 20-HETE formation (CYP4) in RLM; experiment: Inhibition of 20-HETE formation at 250 or 500 nM in RLM microsomal incubations; format: biochemical, rat; settings: 500 nM compound; RLM 300 μg/ml
In short: (§1)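 20-HETE formation, measured by UPLC-MS/MS after ether extraction, is reported as percentage of vehicle control, triplicates. Incubations: 300 μg/ml microsomal protein or 25 pmol/mL rCYP4F2, AA 100 μM, NADPH 1 mM, 20 min at 37° C.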

rCYP4F2 = biological target: T1, rCYP4F2 (Homo sapiens, UniProt P78329); experiment: Inhibition of 20-HETE formation at 250 or 500 nM in rCYP4F2 incubations; format: biochemical; settings: 500 nM compound; rCYP4F2 25 pmol/mL; read-out: rCYP4F2 % inh. @ 500 nM
T1 sequence (P78329 5-520): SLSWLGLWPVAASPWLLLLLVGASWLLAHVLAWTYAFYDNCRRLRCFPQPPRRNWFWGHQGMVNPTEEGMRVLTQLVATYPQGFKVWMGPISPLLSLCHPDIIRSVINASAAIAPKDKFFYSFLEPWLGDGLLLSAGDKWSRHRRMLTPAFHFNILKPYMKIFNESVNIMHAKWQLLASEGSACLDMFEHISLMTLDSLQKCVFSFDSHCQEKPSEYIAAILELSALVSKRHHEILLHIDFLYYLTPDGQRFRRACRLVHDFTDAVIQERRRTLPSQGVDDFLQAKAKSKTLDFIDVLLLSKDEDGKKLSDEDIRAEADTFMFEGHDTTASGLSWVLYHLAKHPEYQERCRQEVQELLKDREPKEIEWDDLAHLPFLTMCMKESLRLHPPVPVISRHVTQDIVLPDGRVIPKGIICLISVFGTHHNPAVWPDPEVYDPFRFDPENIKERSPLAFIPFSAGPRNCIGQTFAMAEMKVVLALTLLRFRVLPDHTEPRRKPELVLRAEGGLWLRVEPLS
In short: as §1

[6] = system: 20-HETE formation (CYP4) in HLM; experiment: Inhibition of 20-HETE formation at 250 or 500 nM in HLM microsomal incubations; format: biochemical, human; settings: 500 nM compound; HLM 300 μg/ml, AA 100 μM, 20 min
In short: as §1

[7] = biological target: formation of EETs and DiHETs (epoxygenase activity) in HLM; experiment: Selectivity: inhibition of EETs and DiHETs formation (epoxygenase activity) in HLM; format: biochemical, human; settings: sum of EETs and DiHETs
Experimental: Selectivity of compounds for inhibition of 20-HETE formation vs inhibition of formation of 8,9-, 11,12-, 14,15-EET and 5,6-, 8,9-, 11,12-, 14,15-DiHETs was assessed via the simultaneous monitor of formation of 20-HETE and those metabolites under the UPLC-MS/MS assay conditions described above using HLM incubations and the same 12 test compound concentrations (0.1 nM-[…]) used for the IC50 determination experiments. At each of the 12 concentrations, the selectivity of 20-HETE inhibition over the other metabolites was compared. Epoxygenase activity was assessed by the sum of EETs and DiHETEs as percentage of control.

Row | Compound | RKM % inh. @ 500 nM [1] [%] | solubility at 2 h ([2]; OD620, read-out: Max Solub) [µM] | solubility at 2 h ([2]; read-out: Solubility_ug/mL) [µg/mL] | Stability HLM % @ 30 min [3] [%] | IC50 [4] [µM] | RLM % inh. @ 500 nM [5] [%] | inhibition at 0.5 µM (rCYP4F2) [%] | HLM % inh. @ 500 nM [6] [%] | pIC50 [7]
1 | CC(=O)Nc1ccc(C2CCN(c3cn[nH]c3)CC2)cc1 [Compound 30, N-(4-(1-(1H-Pyrazol-4-yl)piperidin-4-yl)phenyl)acetamide] | 40.00 | 482 | 137 | 0 | 0.05 | 37.00 | 95 | 86.00 | –
2 | COc1cccc(C2CCN(c3cn[nH]c3)CC2)c1 [Compound 8, 4-(3-Methoxyphenyl)-1-(1H-pyrazol-4-yl)piperidine] | 0.00 | 111 | 29 | – | 0.17 | 45.50 | 48.9 | 62.70 | < 4.30
3 | COc1cncc(C2CCN(c3cn[nH]c3)CC2)c1 [Compound 59, 3-(1-(1H-Pyrazol-4-yl)piperidin-4-yl)-5-methoxypyridine] | – | > 600 | 155 | 98 | 0.19 | 64.40 | 73.7 | 63.30 | –
4 | COCc1ccc(C2CCN(c3ccn[nH]3)CC2)cc1 [Compound 25, 4-(4-(Methoxymethyl)phenyl)-1-(1H-pyrazol-5-yl)piperidine] | – | 235 | 63.9 | 100 | 0.28 | 21.30 | 67.8 | 56.40 | –
5 | COc1ccc(C2CCN(c3cn[nH]c3)CC2)c(F)c1 [Compound 47, 4-(2-Fluoro-4-methoxyphenyl)-1-(1H-pyrazol-4-yl)piperidine] | 0.00 | – | – | 100 | 0.08 | 63.00 | 88 | 82.00 | –
6 | c1ccc(SC2CCN(c3cn[nH]c3)CC2)cc1 [Compound 40, 4-(Phenylthio)-1-(1H-pyrazol-4-yl)piperidine] | – | 95.5 | 24.8 | 82 | 0.1 | 7.80 | 75.9 | 65.80 | –
7 | Cc1ccc(C2CCN(c3cn[nH]c3)CC2)cc1 [Compound 24, 1-(1H-Pyrazol-4-yl)-4-(p-tolyl)piperidine] | – | 85.4 | 20.6 | 92 | 0.08 | 16.30 | 79.9 | 73.80 | –
8 | CCS(=O)(=O)c1ccc(C2CCN(c3ccn[nH]3)CC2)cc1 [Compound 58, 4-(4-(Ethylsulfonyl)phenyl)-1-(1H-pyrazol-5-yl)piperidine] | – | 394 | 126 | 97 | 0.11 | 0.00 | 70.6 | 67.40 | –
9 | COCc1ccc(C2CCN(c3cn[nH]c3)CC2)cc1 [Compound 26, 4-(4-(Methoxymethyl)phenyl)-1-(1H-pyrazol-4-yl)piperidine] | – | 366 | 99.4 | 100 | 0.2 | 27.80 | 81.7 | 71.70 | –
